The values below come from PubChem BioAssay AID652246 (Sanford-Burnham Center for Chemical Genomics, 2013).

Active and inactive are the calls of the source. No rule for the calls is given here. Where only a bound is given, the exact number is not on record here.

The test system of the assay is HT1080 viability, ATPLite luminescence, overnight. In words: HT1080 parental cell cytotoxicity, dose response, cytotoxicity control for MT1-MMP activation inhibitor project, ATPLite luminescence, set 2 (AID 652246).
As to `CN1/C(=C\C(=O)c2cncc(Br)c2)C(C)(C)c2ccccc21`, the IC50 is 30.2 µM (inactive). Consider `O=c1cc2oc3cc(O)c(O)cc3c(-c3ccccc3[N+](=O)[O-])c-2cc1O`, for which the IC50 was > 80 µM (inactive). Turning to `O=C(NNc1c2ccccc2nc2ccccc12)c1ccccc1O`, the IC50 is > 80 µM (inactive).

`Cc1ccc(C(=O)NNc2c3ccccc3nc3ccccc23)cc1`: the IC50 was > 80 µM (inactive). Turning to `C[n+]1c2ccccc2nc2ccc(NCCO)cc21`, the IC50 is > 80 µM (inactive). In the case of `COc1ccc(OCC(=O)NNc2c3ccccc3nc3ccccc23)cc1`, the IC50 is > 80 µM (inactive).

With `O=S(=O)(O)c1cc(O)c(N=Nc2ccc(O)cc2O)c2ccccc12`, the IC50 was 30.5 µM (inactive).

Regarding `COc1ccccc1N=Nc1nc(-c2ccccc2)c(-c2ccccc2)[nH]1`, the IC50 is > 80 µM (inactive).

For the molecule `CN1/C(=C/C=C/c2n(C)c3cc([N+](=O)[O-])c([N+](=O)[O-])cc3[n+]2C)C(C)(C)c2ccccc21`, the IC50 was 39.5 µM (inactive). Turning to `O=c1ccc2c(-c3ccccc3S(=O)(=O)O)c3ccc(O)c(O)c3oc-2c1O`, the IC50 was > 80 µM (inactive).

As to `COc1ccc2nc(-n3c(O)c(C4=c5ccccc5=NC4=O)[nH]c3=S)sc2c1`, the IC50 is > 80 µM (inactive).

In the case of `Nc1nc(-c2ccccc2)c(N=Nc2ccccc2Cl)s1`, the IC50 is > 80 µM (inactive). Turning to `CN1/C(=C\C=N\NC(=O)c2ccc(O)cc2)C(C)(C)c2ccccc21`, the IC50 is > 80 µM (inactive). As for `CN(C)/C=C/c1oc2ccc(O)cc2c1[N+](=O)[O-]`, the figure is > 80 µM (inactive); as for `Cc1c(C(=O)O)c(O)cc2c1C(=O)c1c(O)c([C@@H]3O[C@H](CO)[C@@H](O)[C@H](O)[C@H]3O)c(O)c(O)c1C2=O`, > 80 µM (inactive). As for `CCN1C(=O)/C(=C2\C=Cc3ccccc3N2CC)SC1=S`, the figure is > 80 µM (inactive). With `Cn1cccc1/C=C1/C(=O)NC(=S)N(Cc2ccc(F)cc2)C1=O`, the IC50 is > 80 µM (inactive). For `Oc1ccc(N=Nc2c(O)ccc3ccccc23)cc1`, the IC50 is 54.8 µM (inactive). On to `CC[n+]1c(/C=C/Nc2ccccc2)sc2ccccc21`, for which the IC50 is > 80 µM (inactive). Turning to `COc1cc(-c2cc(=O)c3c(O)c(OC)c(OC)cc3o2)cc(OC)c1O`, the IC50 is > 80 µM (inactive). Consider `CN(CCCC(=O)O)c1ccc(N=Nc2ccc([N+](=O)[O-])cc2)cc1`, for which the IC50 was 15.8 µM.
